Patent US20260092054A1, “FUSED RING COMPOUND AND PHARMACEUTICAL CONTAINING SAME” (KAKEN PHARMACEUTICAL CO., LTD., priority 2022, published 2026)

Columns and labels:
[1] = target: T1, human STAT6/pIL-4Rα (Homo sapiens, UniProt P42226); experiment: Binding inhibitory activity between human STAT6/pIL-4Rα by fluorescence polarization method; settings: rhSTAT6 (123-658) / FAM-pIL-4Rα peptide
T1 construct: histidine tag
T1 sequence (P42226 123-658): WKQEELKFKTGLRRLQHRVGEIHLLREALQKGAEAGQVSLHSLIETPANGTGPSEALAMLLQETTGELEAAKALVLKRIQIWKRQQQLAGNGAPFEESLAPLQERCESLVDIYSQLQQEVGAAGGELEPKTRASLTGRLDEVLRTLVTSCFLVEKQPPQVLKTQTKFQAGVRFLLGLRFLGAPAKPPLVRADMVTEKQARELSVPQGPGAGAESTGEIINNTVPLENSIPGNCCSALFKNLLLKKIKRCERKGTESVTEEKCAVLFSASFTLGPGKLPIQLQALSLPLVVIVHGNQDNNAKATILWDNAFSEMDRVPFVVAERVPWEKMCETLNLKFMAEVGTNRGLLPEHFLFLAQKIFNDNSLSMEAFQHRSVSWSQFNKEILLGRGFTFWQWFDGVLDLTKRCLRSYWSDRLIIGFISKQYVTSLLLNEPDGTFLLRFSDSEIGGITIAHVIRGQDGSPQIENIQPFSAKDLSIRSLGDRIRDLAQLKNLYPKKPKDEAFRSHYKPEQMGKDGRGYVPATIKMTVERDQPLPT
Procedure, shortened: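 His-tagged human STAT6 (residues 123–658, E. coli-expressed) was preincubated with compound for 30 min at RT in the dark, in buffer e.g. 50 mM NaCl, 10 mM HEPES pH 7.0, 1 mM DTT, 1 mM EDTA, 0.01% NP-40. FAM-pIL-4Rα peptide was then added for 30 min. Fluorescence polarisation was read at 485/535 nm, with IC50 interpolated linearly between two points flanking 50%.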

[2] = system: human STAT6; experiment: Human STAT6 dependent reporter activity (IL-4 stimulated STAT6 reporter assay using STAT6-HEK293 cells); type: cell-based; settings: Homo sapiens, IL-4 stimulation, luciferase activity, read-out: Inhibition rate (%); for inhibition at 0.1 µM: compound 0.1 μmol/L; for inhibition at 1 µM: compound 1 μmol/L

| SMILES | IC50 [1] [nM] | inhibition at 0.1 µM [2] [%] | inhibition at 1 µM [2] [%] |
| --- | --- | --- | --- |
| CCn1c(-c2ccc(N3C(=O)C(C)CC3C)cc2)cc2ccnc(C(=O)Nc3ccc(F)c(C(=O)NCC#N)c3)c21 (stereo not shown) [Ex. 147] | 780 | 48 | 91 |
| COCCn1c(-c2ccc(-n3c(C)nn(C)c3=O)cc2)cc2cc(C(F)(F)F)cc(C(=O)Nc3cccc(C#N)c3)c21 [Ex. 52] | 190 | 52 | 100 |
| CCn1c(-c2ccc(-n3c(C)nn(C)c3=O)cc2)cc2ncnc(C(=O)Nc3ccc(F)c(C(N)=O)c3)c21 [Ex. 110] | 430 | 65 | – |
| CNC(=O)c1cc(NC(=O)c2cc(C(F)(F)F)cc3cc(-c4ccc(-n5c(C)nn(C)c5=O)cc4)n(CCOC)c23)ccc1F [Ex. 51] | 490 | 13 | 82 |
| Cc1nn(C)c(=O)n1-c1ccc(-c2cc3ccnc(C(=O)Nc4cccc(C(N)=O)c4)c3n2CC2CCC2)cc1 [Ex. 120] | 500 | 74 | – |
| Cc1nn(C)c(=O)n1-c1ccc(-c2cc3ccnc(C(=O)Nc4ccc(F)c(C(N)=O)c4)c3n2CCOCC(F)(F)F)cc1 [Ex. 114] | 330 | 57 | 97 |
| CNC(=O)c1cccc(NC(=O)c2cc(C(F)(F)F)cc3cc(-c4ccc(-n5c(C)nn(C)c5=O)cc4)n(CCOC)c23)c1 [Ex. 44] | 170 | 93 | 100 |
| CCn1c(-c2ccc(-n3c(C)nn(C)c3=O)cc2)cc2cc(Cl)cc(C(=O)Nc3ccc(F)c(C(N)=O)c3)c21 [Ex. 56] | 270 | 94 | 100 |
| COCCn1c(-c2ccc(-n3c(C)nn(C)c3=O)cc2)cc2ccnc(C(=O)Nc3cccc(C(N)=O)c3F)c21 [Ex. 26] | 390 | 63 | 98 |

More lines, main results first:

| IC50 [1] [nM] | SMILES | inhibition at 0.1 µM [2] [%] | inhibition at 1 µM [2] [%] |
| --- | --- | --- | --- |
| 410 | CCn1c(-c2ccc(-n3c(C)nn(C)c3=O)cc2)cc2ccnc(C(=O)Nc3cccc(C(=O)NCC#N)c3F)c21 [Ex. 190] | 66 | 97 |
| 940 | CCn1c(-c2ccc(C(=O)N(C)C)cc2)cc2cc(C(F)(F)F)cc(C(=O)Nc3ccc(F)c(C(N)=O)c3)c21 [Ex. 153] | 25 | 93 |
| 330 | CCn1c(-c2ccc(NC(C)=O)cc2)cc2ccnc(C(=O)Nc3ccc(F)c(C(=O)NCC#N)c3)c21 [Ex. 149] | 25 | 84 |
| 290 | CCn1c(-c2ccc(-n3c(C)nn(C)c3=O)cc2)cc2ccnc(C(=O)Nc3ccc(F)c(C(=O)Nc4cn(C)c(=O)n(C)c4=O)c3)c21 [Ex. 191] | 63 | – |
| 230 | COCCn1c(-c2ccc(-n3c(C)nn(C)c3=O)cc2)cc2cc(C(F)(F)F)cc(C(=O)Nc3cccc(C(=O)Nc4ccn(CC#N)n4)c3)c21 [Ex. 183] | 86 | – |
| 270 | Cc1nn(C)c(=O)n1-c1ccc(-c2cc3ccnc(C(=O)Nc4cccc(C(=O)Nc5cccn(C)c5=O)c4)c3n2CC2CC2)cc1 [Ex. 199] | 67 | – |
| 230 | Cc1nn(C)c(=O)n1-c1ccc(-c2cc3ccnc(C(=O)Nc4cccc(C(=O)Nc5cccn(C)c5=O)c4)c3n2CC2(C#N)CC2)cc1 [Ex. 200] | 53 | 99 |
